test system: lice; assay: Standard in vitro test on filter paper (petri-dish lice repellency); details: 10 min, 20±3° C.
Method: Screening tests were performed on many substances of the following groups: terpenes (hydrocarbons), terpenoid alcohols, terpenoid esters, terpenoid aldehydes and ketones, essential oils which contain terpenoids and perfumes which contain terpenoids, as well as various general insect repellents, for lice-repellency. Each experiment included exposure of the lice to different concentrations of the tested substance, and measuring the dose response of those materials.
A petri-dish method was used to examine the repellency of the solutions for lice. A filter paper (Whatman No. 4, 5.5 cm in diameter) was secured in a petri-dish. A 100 μl portion of the test solution was placed on a corduroy patch (1.5 cm^2). The material was allowed to dry for 30 min. at room temperature (20±3° C.) and the patch was placed at the periphery of the petri-dish. A patch treated with a control solution (96% Ethanol) was placed on the opposite side of the dish. Twenty female lice which had been fed 24 hours previously were placed in the middle of the dish. A box was placed over the dish and it was covered with a dark cloth in order to keep the test area in the dark. The experiment was carried out at room temperature (20°±3° C.) and lasted 10 min. The number of lice on the treated and controlled patches as well as on the area between the patches was recorded in a protocol. The experiment was repeated three times for each sample.
% repellency was calculated by the following formula:
where: T=number of lice on the treated patch
C=number of lice on the untreated patch
The following terms were recorded:
RC80 =Concentration giving 80% repellency.
RC50 =Concentration giving 50% repellency.
RD80 =mg/cm^2 giving 80% repellency.
RD50 =mg/cm^2 giving 50% repellency.

Molecule	RC50 (Concentration giving 50% repellency) [%]	RC80 (Concentration giving 80% repellency) [%]	RD50 (mg/cm^2 giving 50% repellency) [mg/cm^2]	RD80 (mg/cm^2 giving 80% repellency) [mg/cm^2]
C=C(C)C1CCC(C)C(O)C1 (centres unmarked) [DIHYDRO CARVEOL, dihydrocarveol]	0.400	0.900	0.280	0.630
C=C(C)C1CCC(C)C(=O)C1 (centres unmarked) [DIHYDRO CARVONE]	0.200	0.500	–	0.350
CC1=CC(O)C2CC1C2(C)C (stereo not drawn) [Cis VERBENOL, cis-verbenol]	1.000	2.000	0.700	1.400
CC1CCC(C(C)C)C(OC(=O)C(C)O)C1 (centres unmarked) [MENTHYL LACTATE, menthyl lactate]	0.050	0.100	–	0.070
C=CC(C)CCCC(C)(C)O (centres unmarked) [DIHYDRO MYRCENOL, dihydro-myrcenol]	0.600	0.800	–	0.560
C=C(C)[C@@H]1CC=C(CO)CC1 [PERILLIL ALCOHOL, perillyl alcohol]	0.010	0.030	–	0.020
CC1(C)C2CCC(CO)C1C2 (stereo not drawn) [Cis MYRTANOL]	0.600	1.000	0.420	0.700
C=C1CCC2CC1C2(C)C (stereo not drawn) [β PINENE]	0.200	1.100	–	0.770
CC(=O)O[C@@H]1C[C@H]2CC[C@]1(C)C2(C)C (racemic) [ISO BORNYL ACETATE]	0.600	0.800	–	0.560
C=C(C)C1CC=C(C)[C@@H](O)C1 (some centres unmarked) [CARVEOL, carveol]	0.600	1.500	–	1.050
CC(C)=CCCC(C)=CC=O [CITRAL]	0.300	0.600	–	0.420
CC1(C)C2CC=C(CO)C1C2 (centres unmarked) [MYRTENOL, myrtenol]	0.500	0.900	0.350	0.630
C=CC(C)(O)CCC=C(C)C (centres unmarked) [LINALOOL, linalool]	0.020	0.080	–	0.056
CC1=CCC(O)(C(C)C)CC1 (centres unmarked) [terpinen-4-ol]	0.020	0.090	–	0.063
C=C(C)C1CC=C(C)C(OC(=O)CC)C1 (centres unmarked) [CARVYL PROPRIONATE, carvyl propionate]	0.200	0.600	0.140	0.420
CC1=CCC2C(C1)C2(C)C (centres unmarked) [CARENE]	1.000	2.000	–	1.400
CC(C)=CCCC(C)CCO (stereo not drawn) [β-CITRONELLOL, β-citronellol]	0.020	0.070	–	0.049
C=C(C)[C@@H]1CC[C@@H](C)C[C@H]1O [ISOPULEGOL, isopulegol]	0.500	0.800	–	0.560
IONONE	0.250	0.600	0.170	0.420
CC(C)=CCC/C(C)=C\CO [NEROL, nerol]	0.500	0.800	–	0.560
CC(C)=CCC/C(C)=C/CO [GERANIOL, geraniol]	0.005	0.020	–	0.014
CC(C)=C1CC[C@@H](C)CC1=O [PULEGONE]	0.400	0.700	–	0.490
C=C(C)C1CCC(C)C(OC(C)=O)C1 (centres unmarked) [DIH[…]]	0.150	0.300	0.105	0.210
CC1C(O)CC2CC1C2(C)C (centres unmarked) [ISOPINO-CAMPHEOL, iso-pinocampheol]	0.200	0.300	0.140	0.210
C=C(C)[C@@H]1CC=C(C)CC1 [- LIMONENE]	3.000	4.000	–	2.800
C=C(C)[C@H]1CC=C(C)CC1 [+ LIMONENE]	2.000	3.000	–	2.100
CC1=CC=C(C(C)C)CC1	0.900	1.500	–	1.050
CC1CCC(C(C)C)C(O)C1 (centres unmarked) [MENTHOL, menthol]	0.030	0.150	–	0.105

— patent publication US5227163A, “Lice-repellant compositions” (priority 1992, dated 1993)
